Data from patent US20250320193A1, “OXOISOINDOLINYL SUBSTITUTED PIPERIDINEDIONE DERIVATIVE AND USE THEREOF” (GLUETACS THERAPEUTICS (SHANGHAI) CO., LTD., priority 2022, published 2025).

What was measured:
[1] = molecular target: human Cereblon WT GST-tagged protein (Homo sapiens (Human), UniProt Q96SW2); assay: CRBN-binding affinity, HTRF (CEREBLON BINDING kit, CISBIO); conditions: HTRF inhibitory activity
Outline: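 Compounds were mixed with GST-tagged human Cereblon WT protein, then with Thalidomide-Red tracer and GST Eu antibody, and binding was read by HTRF. Inhibition rate was calculated from 620 nm emission relative to blank control wells (no protein) and solvent control wells.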

IKZF1 = IKZF1 (Homo sapiens (Human), UniProt Q13422+Q96SW2); assay: Western blot, substrate protein expression in hPBMC: IKZF1; type: cell-based; conditions: hPBMC, compound 500 nM, 24 hours, Western blot
Outline: (§1)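 hPBMC, 1×10^6 cells/mL, 24 h compound exposure; RIPA lysis, BCA protein assay, SDS-PAGE, NC membrane immunoblot. Densitometry vs internal control → % protein remaining; degradation % = 100% − remaining; DC50 = conc. at 50% of DMSO band signal.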

IKZF3 = IKZF3 (Homo sapiens (Human), UniProt Q96SW2+Q9UKT9); assay: Western blot, substrate protein expression in hPBMC: IKZF3; type: cell-based; conditions: hPBMC, compound 500 nM, 24 hours, Western blot
Outline: as §1

GSPT1 = GSPT1 (Homo sapiens (Human), UniProt P15170+Q96SW2); assay: Western blot, substrate protein expression in hPBMC: GSPT1; type: cell-based; conditions: hPBMC, compound 500 nM, 24 hours, Western blot
Outline: as §1

GSPT1, sequence (P15170 whole entry): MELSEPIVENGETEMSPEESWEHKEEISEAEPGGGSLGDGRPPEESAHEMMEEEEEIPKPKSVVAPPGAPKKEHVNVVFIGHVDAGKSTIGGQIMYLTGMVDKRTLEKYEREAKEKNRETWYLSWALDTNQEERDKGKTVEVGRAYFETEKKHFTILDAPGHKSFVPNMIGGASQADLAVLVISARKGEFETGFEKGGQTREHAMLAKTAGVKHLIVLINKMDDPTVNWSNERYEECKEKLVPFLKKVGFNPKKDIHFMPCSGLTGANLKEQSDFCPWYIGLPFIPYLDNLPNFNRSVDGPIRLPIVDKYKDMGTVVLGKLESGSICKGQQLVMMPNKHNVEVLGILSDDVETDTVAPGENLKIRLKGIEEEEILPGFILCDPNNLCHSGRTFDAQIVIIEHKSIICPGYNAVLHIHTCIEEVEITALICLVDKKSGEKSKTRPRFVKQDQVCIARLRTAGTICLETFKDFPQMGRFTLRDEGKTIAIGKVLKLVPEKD
GSPT1, sequence (Q96SW2 whole entry): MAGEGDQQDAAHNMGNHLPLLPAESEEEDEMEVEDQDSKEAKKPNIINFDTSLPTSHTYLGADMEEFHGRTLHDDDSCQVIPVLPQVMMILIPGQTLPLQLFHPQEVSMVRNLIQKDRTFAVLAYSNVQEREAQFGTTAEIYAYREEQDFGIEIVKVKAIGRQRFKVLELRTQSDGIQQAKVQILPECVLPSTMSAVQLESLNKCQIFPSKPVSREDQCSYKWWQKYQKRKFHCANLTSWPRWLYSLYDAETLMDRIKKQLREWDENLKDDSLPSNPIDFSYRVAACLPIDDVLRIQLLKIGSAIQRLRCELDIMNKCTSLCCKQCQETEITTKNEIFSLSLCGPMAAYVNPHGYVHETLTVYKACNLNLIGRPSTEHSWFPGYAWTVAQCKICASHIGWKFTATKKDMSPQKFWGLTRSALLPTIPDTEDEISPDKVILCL
GSPT1, sequence (Q16531 whole entry partner): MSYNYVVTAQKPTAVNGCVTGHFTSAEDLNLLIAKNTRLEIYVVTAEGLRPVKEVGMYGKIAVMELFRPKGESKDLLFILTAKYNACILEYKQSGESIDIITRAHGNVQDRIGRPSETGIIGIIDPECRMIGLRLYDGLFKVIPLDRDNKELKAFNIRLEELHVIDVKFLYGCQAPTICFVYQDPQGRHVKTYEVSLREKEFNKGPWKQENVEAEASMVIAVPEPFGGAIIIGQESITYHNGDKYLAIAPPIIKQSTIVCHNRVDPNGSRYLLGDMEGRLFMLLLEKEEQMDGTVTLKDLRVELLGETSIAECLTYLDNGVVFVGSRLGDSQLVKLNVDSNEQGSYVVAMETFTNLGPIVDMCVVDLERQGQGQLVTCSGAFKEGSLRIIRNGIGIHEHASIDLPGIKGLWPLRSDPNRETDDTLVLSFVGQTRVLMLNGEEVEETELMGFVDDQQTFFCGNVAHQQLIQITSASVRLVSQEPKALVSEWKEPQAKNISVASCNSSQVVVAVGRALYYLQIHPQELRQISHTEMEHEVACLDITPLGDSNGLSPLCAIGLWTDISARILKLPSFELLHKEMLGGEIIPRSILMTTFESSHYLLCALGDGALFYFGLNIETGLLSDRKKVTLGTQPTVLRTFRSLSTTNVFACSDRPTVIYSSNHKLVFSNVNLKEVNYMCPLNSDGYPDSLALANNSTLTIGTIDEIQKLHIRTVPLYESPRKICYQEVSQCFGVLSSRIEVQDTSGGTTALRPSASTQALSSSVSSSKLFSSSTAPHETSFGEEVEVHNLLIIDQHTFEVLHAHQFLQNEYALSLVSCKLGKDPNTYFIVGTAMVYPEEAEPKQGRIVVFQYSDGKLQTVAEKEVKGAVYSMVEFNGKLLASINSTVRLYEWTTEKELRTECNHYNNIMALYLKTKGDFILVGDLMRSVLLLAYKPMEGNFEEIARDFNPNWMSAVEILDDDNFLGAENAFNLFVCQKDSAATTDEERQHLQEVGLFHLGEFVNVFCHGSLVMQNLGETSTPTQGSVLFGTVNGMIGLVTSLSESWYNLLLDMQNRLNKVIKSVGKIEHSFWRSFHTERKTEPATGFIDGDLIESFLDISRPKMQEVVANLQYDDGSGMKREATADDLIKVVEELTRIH
human Cereblon WT GST-tagged protein, sequence (Q96SW2 whole entry): as the sequence (Q96SW2 whole entry) above
IKZF1, sequence (Q13422 whole entry): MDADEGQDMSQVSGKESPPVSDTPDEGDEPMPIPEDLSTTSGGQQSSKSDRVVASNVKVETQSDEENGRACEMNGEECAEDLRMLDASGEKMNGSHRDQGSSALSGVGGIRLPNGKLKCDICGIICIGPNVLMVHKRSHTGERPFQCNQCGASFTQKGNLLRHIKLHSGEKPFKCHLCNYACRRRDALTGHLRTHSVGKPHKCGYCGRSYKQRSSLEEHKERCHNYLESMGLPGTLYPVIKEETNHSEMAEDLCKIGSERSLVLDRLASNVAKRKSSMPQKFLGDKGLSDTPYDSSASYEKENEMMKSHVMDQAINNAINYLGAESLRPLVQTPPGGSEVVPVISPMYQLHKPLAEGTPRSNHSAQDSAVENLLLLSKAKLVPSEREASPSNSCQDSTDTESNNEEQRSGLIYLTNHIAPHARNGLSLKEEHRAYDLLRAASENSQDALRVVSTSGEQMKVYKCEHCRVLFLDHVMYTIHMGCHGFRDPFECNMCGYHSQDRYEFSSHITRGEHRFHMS
IKZF1, sequence (Q96SW2 whole entry): as the sequence (Q96SW2 whole entry) above
IKZF1, sequence (Q16531 whole entry partner): as the sequence (Q16531 whole entry partner) above
IKZF3, sequence (Q9UKT9 whole entry): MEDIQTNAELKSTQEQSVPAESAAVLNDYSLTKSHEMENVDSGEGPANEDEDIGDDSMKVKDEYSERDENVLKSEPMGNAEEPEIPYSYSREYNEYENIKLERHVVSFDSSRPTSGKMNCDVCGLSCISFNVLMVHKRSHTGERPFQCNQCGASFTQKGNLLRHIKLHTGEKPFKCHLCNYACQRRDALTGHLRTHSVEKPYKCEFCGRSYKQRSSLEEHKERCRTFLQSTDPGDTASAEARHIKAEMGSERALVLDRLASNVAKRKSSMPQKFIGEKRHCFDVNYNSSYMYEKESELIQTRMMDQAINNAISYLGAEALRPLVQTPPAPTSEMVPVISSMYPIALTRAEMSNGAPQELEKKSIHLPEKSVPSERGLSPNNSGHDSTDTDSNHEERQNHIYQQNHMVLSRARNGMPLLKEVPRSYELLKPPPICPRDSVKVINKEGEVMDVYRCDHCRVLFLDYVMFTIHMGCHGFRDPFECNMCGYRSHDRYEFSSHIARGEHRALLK
IKZF3, sequence (Q96SW2 whole entry): as the sequence (Q96SW2 whole entry) above
IKZF3, sequence (Q16531 whole entry partner): as the sequence (Q16531 whole entry partner) above

| SMILES | IC50 [1] | substrate protein remaining % IKZF1 (IKZF1) | substrate protein remaining % IKZF3 (IKZF3) | substrate protein remaining % GSPT1 (GSPT1) |
| --- | --- | --- | --- | --- |
| O=C1CCC(N2Cc3c(CN4CC5CN(C(c6ccccc6)c6ccccc6)CC5C4)cccc3C2=O)C(=O)N1 (stereo not drawn) [GT-06052, 3-(4-((5-benzhydrylhexahydropyrrolo[3,4-c]pyrrol-2 (1H)-yl)methyl)-1-oxoisoindolin-2-yl)piperidine-2,6-dione] | < 500 nM | B (B represents substrate protein remaining % > 50%) | B (B represents substrate protein remaining % > 50%) | A (A represents 0% ≤ substrate protein remaining % ≤ 50%) |
| CC1(C)CN(C(=O)c2ccc3c(c2)CN(C2CCC(=O)NC2=O)C3=O)CCN1C(c1ccccc1)c1ccccc1 (stereo not drawn) [GT-06061, 3-(5-(4-benzhydryl-3,3-dimethylpiperazine-1-carbonyl)-1-oxoisoindolin-2-yl)piperidine-2,6-dione] | 500 to 1000 nM | B (B represents substrate protein remaining % > 50%) | B (B represents substrate protein remaining % > 50%) | A (A represents 0% ≤ substrate protein remaining % ≤ 50%) |
| O=C1CCC(N2Cc3cc(C(=O)N4CCC5(CCN(C(c6ccccc6)c6ccccc6)CC5)C4)ccc3C2=O)C(=O)N1 (stereo not drawn) [GT-06063, 3-(5-(8-benzhydryl-2,8-diazaspiro[4.5]decane-2-carbonyl)-1-oxoisoindolin-2-yl)piperidine-2,6-dione] | 500 to 1000 nM | B (B represents substrate protein remaining % > 50%) | B (B represents substrate protein remaining % > 50%) | A (A represents 0% ≤ substrate protein remaining % ≤ 50%) |
| O=C1CCC(N2Cc3cc(C(=O)N4CCC5(CC4)CCN(C(c4ccccc4)c4ccccc4)CC5)ccc3C2=O)C(=O)N1 (stereo not drawn) [GT-06065, 3-(5-(9-benzhydryl-3,9-diazaspiro[5.5]undecane-3-carbonyl)-1-oxoisoindolin-2-yl)piperidine-2,6-dione] | < 500 nM | B (B represents substrate protein remaining % > 50%) | B (B represents substrate protein remaining % > 50%) | A (A represents 0% ≤ substrate protein remaining % ≤ 50%) |
| O=C1CCC(N2Cc3cc(C(=O)N4CC5CN(C(c6ccccc6)c6ccccc6)CC5C4)ccc3C2=O)C(=O)N1 (stereo not drawn) [GT-06067, 3-(5-(5-benzhydryloctahydropyrrolo[3,4-c]pyrrole-2-carbonyl)-1-oxoisoindolin-2-yl)piperidine-2,6-dione] | 500 to 1000 nM | B (B represents substrate protein remaining % > 50%) | B (B represents substrate protein remaining % > 50%) | A (A represents 0% ≤ substrate protein remaining % ≤ 50%) |
| O=C1CCC(N2Cc3cc(C(=O)N4CCN(C(c5ccccc5)c5ccccc5)CC4C(F)(F)F)ccc3C2=O)C(=O)N1 (stereo not drawn) [GT-06071, 3-(5-(4-benzhydryl-2-(trifluoromethyl)piperazine-1-carbonyl)-1-oxoisoindolin-2-yl)piperidine-2,6-dione] | 500 to 1000 nM | B (B represents substrate protein remaining % > 50%) | B (B represents substrate protein remaining % > 50%) | A (A represents 0% ≤ substrate protein remaining % ≤ 50%) |
| O=C1CCC(N2Cc3cc(C(=O)N4CCN(C(c5ccccc5)c5ccccc5)CC4C(F)(F)F)cc(F)c3C2=O)C(=O)N1 (stereo not drawn) [GT-06090, 3-(5-(4-benzhydryl-2-(trifluoromethyl)piperazine-1-carbonyl)-7-fluoro-1-oxoisoindolin-2-yl)piperidine-2,6-dione] | 1000 to 1900 nM | B (B represents substrate protein remaining % > 50%) | B (B represents substrate protein remaining % > 50%) | A (A represents 0% ≤ substrate protein remaining % ≤ 50%) |
| C[C@@H]1CN(C(c2ccccc2)c2ccccc2)CCN1C(=O)c1ccc2c(c1)CN(C1CCC(=O)NC1=O)C2=O (stereo partly drawn) [GT-06092, 3-(5-((R)-4-benzhydryl-2-methylpiperazine-1-carbonyl)-1-oxoisoindolin-2-yl)piperidine-2,6-dione] | < 500 nM | B (B represents substrate protein remaining % > 50%) | B (B represents substrate protein remaining % > 50%) | A (A represents 0% ≤ substrate protein remaining % ≤ 50%) |
| C[C@@H]1CN(C(c2ccccc2)c2ccccc2)CCN1C(=O)c1cc(F)c2c(c1)CN(C1CCC(=O)NC1=O)C2=O (stereo partly drawn) [GT-06093, 3-(5-((R)-4-benzhydryl-2-methylpiperazine-1-carbonyl)-7-fluoro-1-oxoisoindolin-2-yl)piperidine-2,6-dione] | 500 to 1000 nM | B (B represents substrate protein remaining % > 50%) | B (B represents substrate protein remaining % > 50%) | A (A represents 0% ≤ substrate protein remaining % ≤ 50%) |
| O=C1CCC(N2Cc3cc(CN4CCN(C(c5ccccc5)c5ccccc5)CC4C(F)(F)F)ccc3C2=O)C(=O)N1 (stereo not drawn) [GT-06095, 3-(5-((4-benzhydryl-2-(trifluoromethyl)piperazin-1-yl)methyl)-1-oxoisoindolin-2-yl)piperidine-2,6-dione] | 500 to 1000 nM | B (B represents substrate protein remaining % > 50%) | B (B represents substrate protein remaining % > 50%) | A (A represents 0% ≤ substrate protein remaining % ≤ 50%) |
| O=C1CCC(N2Cc3c(ccc(CN4CCN(C(c5ccccc5)c5ccccc5)CC4C(F)(F)F)c3F)C2=O)C(=O)N1 (stereo not drawn) [GT-06096, 3-(5-((4-benzhydryl-2-(trifluoromethyl)piperazin-1-yl)methyl)-4-fluoro-1-oxoisoindolin-2-yl)piperidine-2,6-dione] | 500 to 1000 nM | B (B represents substrate protein remaining % > 50%) | A (A represents 0% ≤ substrate protein remaining % ≤ 50%) | A (A represents 0% ≤ substrate protein remaining % ≤ 50%) |
| O=C1CCC(N2Cc3cc(CN4CCN(C(c5ccccc5)c5ccccc5)CC4C(F)(F)F)c(F)cc3C2=O)C(=O)N1 (stereo not drawn) [GT-06097, 3-(5-((4-benzhydryl-2-(trifluoromethyl)piperazin-1-yl)methyl)-6-fluoro-1-oxoisoindolin-2-yl)piperidine-2,6-dione] | 500 to 1000 nM | B (B represents substrate protein remaining % > 50%) | B (B represents substrate protein remaining % > 50%) | A (A represents 0% ≤ substrate protein remaining % ≤ 50%) |
| O=C1CCC(N2C(=O)c3ccc(CN4CCN(C(c5ccccc5)c5cccnc5)CC4)cc3C2=O)C(=O)N1 (stereo not drawn) [GT-06114, 2-(2,6-dioxopiperidin-3-yl)-5-((4-(phenyl(pyridin-3-yl)methyl)piperazin-1-yl)methyl) isoindoline-1,3-dione] | 1000 to 1900 nM | B (B represents substrate protein remaining % > 50%) | B (B represents substrate protein remaining % > 50%) | A (A represents 0% ≤ substrate protein remaining % ≤ 50%) |
| O=C1CCC(N2Cc3cccc(CN4CCN(C(c5cccc(F)c5)c5cccc(F)c5)CC4)c3C2=O)C(=O)N1 (stereo not drawn) [GT-06117, 3-(7-((4-(bis(3-fluorophenyl)methyl)piperazin-1-yl)methyl)-1-oxoisoindolin-2-yl)piperidine-2,6-dione] | 500 to 1000 nM | B (B represents substrate protein remaining % > 50%) | B (B represents substrate protein remaining % > 50%) | A (A represents 0% ≤ substrate protein remaining % ≤ 50%) |
| O=C1CCC(N2C(=O)c3ccc(C(=O)N4CCN(C(c5ccccc5F)c5ccccc5F)CC4)cc3C2=O)C(=O)N1 (stereo not drawn) [GT-06141, 5-(4-(bis(2-fluorophenyl)methyl)piperazine-1-carbonyl)-2-(2,6-dioxopiperidin-3-yl) isoindoline-1,3-dione] | 500 to 1000 nM | B (B represents substrate protein remaining % > 50%) | B (B represents substrate protein remaining % > 50%) | A (A represents 0% ≤ substrate protein remaining % ≤ 50%) |
